According to patent US11224565B2, “N-acyldipeptide derivatives and their uses” (NeoStrata Company, Inc., priority 2011, dated 2022):
Peptide text beside a SMILES is read from it.

Experiments:
Format in all cases: in vivo, human
Conditions in all cases: efficacy grade
[1] = system: Deranged immune disorders and inflammation; assay: Summary of test results in volunteer subjects: deranged immune disorders and inflammation
Description: (§1) In one embodiment, a composition for topical application to test its therapeutic effect was formulated by dissolving a bioactive dipeptide derivative of the present invention in a solution prepared from 40 parts water, 40 parts ethanol and 20 parts propylene glycol by volume (WEP442). In another embodiment, a composition was formulated by dissolving a bioactive dipeptide derivative of the present invention in a non-aqueous solution prepared from 80 parts ethanol and 20 parts propylene glycol by volume (EP82). In yet another embodiment, a composition was formulated first by dissolving a bioactive dipeptide derivative of the present invention in a solution prepared from 80 parts water and 20 parts propylene glycol by volume (WP82), and the solution thus prepared was mixed with an oil-in-water emulsion or cream. In another embodiment, the volunteer subject topically applied the test compositions containing N-acyldipeptide derivatives of the present invention on involved skin or lesions once or twice daily for several weeks or until the involved lesions completely cleared and clinically changed to normal skin. As a control study, the subject also topically applied a vehicle control composition on the involved skin or lesions twice daily for the same period. In yet another embodiment, the volunteer subject topically applied once or twice daily the test compositions containing N-acyldipeptide derivatives of the present invention on the skin site above arthritic joints or painful muscles to provide therapeutic effects for the systemic disorders via topical administration. Some test results are summarized as follows. DI: Deranged immune disorders and inflammation

Disturbed keratinization = assay: Summary of test results in volunteer subjects: disturbed keratinization
Description: as §1, with “DK: Disturbed keratinization” for “DI: Deranged immune disorders and inflammation”

[2] = system: Aging related changes of skin, nail and hair; assay: Summary of test results in volunteer subjects: aging related changes
Description: as §1, with “AG: Aging related changes of skin, nail” for “DI: Deranged immune disorders”, “hair” for “inflammation”

Nerve disorders = assay: Summary of test results in volunteer subjects: nerve disorders
Description: as §1, with “ND: Nerve” for “DI: Deranged immune”, “disorders” for “disorders and inflammation”

SMILES	DI [1]	DK (Disturbed keratinization)	AG [2]	ND (Nerve disorders)
CC(=O)N[C@H](C(=O)N[C@@H](Cc1ccc(O)cc1)C(N)=O)C(C)C [N-Ac-L-Val-L-Tyr-NH2] (Ac-Val-Tyr-NH2)	2+ (2+: 50% Efficacy)	2+ (2+: 50% Efficacy)	2+ (2+: 50% Efficacy)	2+ (2+: 50% Efficacy)
CC(=O)N[C@@H](CC(C)C)C(=O)N[C@@H](C)C(N)=O [N-Ac-L-Leu-L-Ala-NH2] (Ac-Leu-Ala-NH2)	4+ (4+: 95-100% Efficacy)	3+ (3+: 75% Efficacy)	3+ (3+: 75% Efficacy)	4+ (4+: 95-100% Efficacy)
CC(=O)N[C@H](C(=O)N[C@@H](C)C(=O)O)C(C)C [N-Ac-L-Val-L-Ala-OH] (Ac-Val-Ala-OH)	3+ (3+: 75% Efficacy)	2+ (2+: 50% Efficacy)	2+ (2+: 50% Efficacy)	4+ (4+: 95-100% Efficacy)
CC(=O)N[C@@H](CO)C(=O)NCC(N)=O [N-Ac-L-Ser-Gly-NH2] (Ac-Ser-Gly-NH2)	2+ (2+: 50% Efficacy)	2+ (2+: 50% Efficacy)	2+ (2+: 50% Efficacy)	2+ (2+: 50% Efficacy)
CC(=O)N[C@@H](CS)C(=O)N[C@@H](CS)C(=O)O [N-Ac-L-Cys-L-Cys-OH] (Ac-Cys-Cys-OH)	2+ (2+: 50% Efficacy)	2+ (2+: 50% Efficacy)	3+ (3+: 75% Efficacy)	2+ (2+: 50% Efficacy)
CC(=O)N[C@@H](CCC(N)=O)C(=O)NCC(N)=O [N-Ac-L-Gln-Gly-NH2] (Ac-Gln-Gly-NH2)	2+ (2+: 50% Efficacy)	2+ (2+: 50% Efficacy)	2+ (2+: 50% Efficacy)	2+ (2+: 50% Efficacy)
CC[C@H](C)[C@H](NC(C)=O)C(=O)N[C@@H](C)C(N)=O [N-Ac-L-Ile-L-Ala-NH2] (Ac-Ile-Ala-NH2)	4+ (4+: 95-100% Efficacy)	2+ (2+: 50% Efficacy)	2+ (2+: 50% Efficacy)	4+ (4+: 95-100% Efficacy)
CC[C@H](C)[C@H](NC(=O)[C@@H](NC(C)=O)[C@@H](C)CC)C(N)=O [N-Ac-L-Ile-L-Ile-NH2] (Ac-Ile-Ile-NH2)	3+ (3+: 75% Efficacy)	3+ (3+: 75% Efficacy)	2+ (2+: 50% Efficacy)	4+ (4+: 95-100% Efficacy)
CC(=O)N[C@@H](CC(C)C)C(=O)N[C@@H](CC(C)C)C(N)=O [N-Ac-L-Leu-L-Leu-NH2]	2+ (2+: 50% Efficacy)	2+ (2+: 50% Efficacy)	2+ (2+: 50% Efficacy)	2+ (2+: 50% Efficacy)
CC(=O)NCCC(=O)N[C@@H](Cc1c[nH]cn1)C(N)=O [N-Ac-βAla-L-His-NH2]	2+ (2+: 50% Efficacy)	2+ (2+: 50% Efficacy)	2+ (2+: 50% Efficacy)	2+ (2+: 50% Efficacy)
CC(=O)N[C@@H](CC(C)C)C(=O)NCC(=O)O [N-Ac-L-Leu-Gly-OH] (Ac-Leu-Gly-OH)	3+ (3+: 75% Efficacy)	2+ (2+: 50% Efficacy)	2+ (2+: 50% Efficacy)	3+ (3+: 75% Efficacy)
CC(=O)N[C@@H](CS)C(=O)NCC(N)=O [N-Ac-L-Cys-Gly-NH2]	2+ (2+: 50% Efficacy)	2+ (2+: 50% Efficacy)	2+ (2+: 50% Efficacy)	2+ (2+: 50% Efficacy)
CC(=O)N[C@@H](CC(C)C)C(=O)N[C@@H](C)C(=O)O [N-Ac-L-Leu-L-Ala-OH] (Ac-Leu-Ala-OH)	3+ (3+: 75% Efficacy)	2+ (2+: 50% Efficacy)	2+ (2+: 50% Efficacy)	3+ (3+: 75% Efficacy)
CC(=O)N[C@@H](Cc1ccc(O)cc1)C(=O)NCC(N)=O [N-Ac-L-Tyr-Gly-NH2]	2+ (2+: 50% Efficacy)	2+ (2+: 50% Efficacy)	2+ (2+: 50% Efficacy)	2+ (2+: 50% Efficacy)
CC(=O)NCCCC(=O)NCC(N)=O [N-Ac-Gaba-Gly-NH2]	2+ (2+: 50% Efficacy)	2+ (2+: 50% Efficacy)	2+ (2+: 50% Efficacy)	2+ (2+: 50% Efficacy)
CC(=O)NCC(=O)N1CCC[C@H]1C(N)=O [N-Ac-Gly-L-Pro-NH2] (Ac-Gly-Pro-NH2)	2+ (2+: 50% Efficacy)	2+ (2+: 50% Efficacy)	2+ (2+: 50% Efficacy)	2+ (2+: 50% Efficacy)
CC[C@H](C)[C@H](NC(C)=O)C(=O)N[C@@H](Cc1ccc(O)cc1)C(N)=O [N-Ac-L-Ile-L-Tyr-NH2] (Ac-Ile-Tyr-NH2)	2+ (2+: 50% Efficacy)	2+ (2+: 50% Efficacy)	2+ (2+: 50% Efficacy)	2+ (2+: 50% Efficacy)
CCC(=O)N[C@@H](CC(C)C)C(=O)NCC(=O)O [N-Pr-L-Leu-Gly-OH] (HELM PEPTIDE1{[CCC(=O)[*:2]].L.G}$$$$V2.0)	3+ (3+: 75% Efficacy)	2+ (2+: 50% Efficacy)	2+ (2+: 50% Efficacy)	3+ (3+: 75% Efficacy)
CC(=O)N[C@@H](CC(C)C)C(=O)N[C@@H](Cc1ccc(O)cc1)C(N)=O [N-Ac-L-Leu-L-Tyr-NH2] (Ac-Leu-Tyr-NH2)	2+ (2+: 50% Efficacy)	2+ (2+: 50% Efficacy)	2+ (2+: 50% Efficacy)	2+ (2+: 50% Efficacy)
CC(=O)NCC(=O)NCC(N)=O [N-Ac-Gly-Gly-NH2]	2+ (2+: 50% Efficacy)	2+ (2+: 50% Efficacy)	2+ (2+: 50% Efficacy)	2+ (2+: 50% Efficacy)
CC(=O)N[C@H](C(=O)NCC(=O)O)C(C)C [N-Ac-L-Val-Gly-OH] (Ac-Val-Gly-OH)	3+ (3+: 75% Efficacy)	2+ (2+: 50% Efficacy)	2+ (2+: 50% Efficacy)	4+ (4+: 95-100% Efficacy)
CC(=O)N[C@@H](Cc1ccccc1)C(=O)N[C@@H](Cc1ccccc1)C(N)=O [N-Ac-L-Phe-L-Phe-NH2] (Ac-Phe-Phe-NH2)	2+ (2+: 50% Efficacy)	2+ (2+: 50% Efficacy)	2+ (2+: 50% Efficacy)	2+ (2+: 50% Efficacy)
CC[C@H](C)[C@H](NC(C)=O)C(=O)N[C@@H](C)C(=O)O [N-Ac-L-Ile-L-Ala-OH] (Ac-Ile-Ala-OH)	2+ (2+: 50% Efficacy)	2+ (2+: 50% Efficacy)	2+ (2+: 50% Efficacy)	2+ (2+: 50% Efficacy)
CC(=O)NCCC(=O)NCC(N)=O [N-Ac-β-Ala-Gly-NH2]	2+ (2+: 50% Efficacy)	2+ (2+: 50% Efficacy)	2+ (2+: 50% Efficacy)	2+ (2+: 50% Efficacy)
